From BindingDB's records for doi:10.1021/acs.jmedchem.0c01741 (Zhengzhou University, 2020)

Assay: Inhibition of ABCB1 in multidrug-resistant human SW620/Ad300 cells assessed as increase in reversal of resistance to paclitaxel-induced cytotoxicity by measuring paclitaxel IC50 pre-incubated for 4 hrs followed by paclitaxel addition and measured after 72 hrs by MTT assay (Rvb = 4.23 +/- 0.6 uM)

SMILES | IC50 [nM]
Cc1cc(Nc2ccc(O)cc2)n2nc(SCc3nc4ccccc4[nH]3)nc2n1 | 2380
Cc1cc(Nc2ccc(C#N)cc2)n2nc(SCc3nc4ccccc4[nH]3)nc2n1 | 590
C#Cc1cccc(Nc2cc(C)nc3nc(SCc4nc5ccccc5[nH]4)nn23)c1 | 1430
Cc1cc(Nc2ccc(C(=O)O)cc2)n2nc(SCc3nc4ccccc4[nH]3)nc2n1 | 4080
Cc1cc(Nc2ccc(F)cc2)n2nc(SCc3nc4ccccc4[nH]3)nc2n1 | 22
Cc1cc(Nc2ccc(F)cc2)n2nc(SCc3ccccc3Br)nc2n1 | 1640
Cc1cc(Nc2ccc(F)cc2)n2nc(SCc3cccc(Br)c3)nc2n1 | 2040
Cc1ccc(Nc2cc(C)nc3nc(SCc4nc5ccccc5[nH]4)nn23)c(F)c1 | 630
CC(C)c1cc(Nc2ccc(F)cc2)n2nc(SCc3ccccc3)nc2n1 | 1440
Cc1cc(Nc2ccc3c(C)cc(=O)oc3c2)n2nc(SCc3nc4ccccc4[nH]3)nc2n1 | 1140
Cc1cc(Nc2cc(C)[nH]n2)n2nc(SCc3nc4ccccc4[nH]3)nc2n1 | 1570
C#CCSc1nc2nc(C)cc(Nc3ccc(F)cc3)n2n1 | 3360
Cc1cc(Nc2ccc(Cl)cc2Cl)n2nc(SCc3nc4ccccc4[nH]3)nc2n1 | 710
Cc1cc(Nc2ccc(OC(F)(F)F)cc2)n2nc(SCc3nc4ccccc4[nH]3)nc2n1 | 720
COc1cccc(Nc2cc(C)nc3nc(SCc4nc5ccccc5[nH]4)nn23)c1 | 570
Cc1cc(Nc2ccc(F)cc2)n2nc(SCc3ccc([N+](=O)[O-])cc3)nc2n1 | 2280
Cc1cc(Nc2ccc(F)c(Cl)c2)n2nc(SCc3nc4ccccc4[nH]3)nc2n1 | 770
Cc1cc(Nc2ccc(F)cc2)n2nc(SCc3ccc(Br)cc3)nc2n1 | 1370
Cc1cc(Nc2ccc(F)cc2)n2nc(SCc3cccc4ccccc34)nc2n1 | 1740
C=CCSc1nc2nc(C)cc(Nc3ccc(F)cc3)n2n1 | 4200
Cc1cc(Nc2ccc(F)cc2)n2nc(SCc3ccc(C(F)(F)F)cc3)nc2n1 | 2570

SMILES | IC50 [nM]
Cc1cc(Nc2ccc(F)cc2)n2nc(SCC3CC3)nc2n1 | 4110
Cc1cc(Nc2ccc(C(F)(F)F)cc2)n2nc(SCc3nc4ccccc4[nH]3)nc2n1 | 850
Cc1cc(Nc2ccc(F)cc2)n2nc(SCc3ccc(F)cc3)nc2n1 | 1270
Cc1ccc(Nc2cc(C)nc3nc(SCc4nc5ccccc5[nH]4)nn23)cc1 | 500
COc1ccc(Nc2cc(C)nc3nc(SCc4nc5ccccc5[nH]4)nn23)cc1 | 320
COc1cc(Nc2cc(C)nc3nc(SCc4nc5ccccc5[nH]4)nn23)cc(OC)c1OC | 250
Cc1cc(Nc2ccc(F)cc2)n2nc(SCc3csc4ccc(Cl)cc34)nc2n1 | 2840
Cc1cc(Nc2ccc(F)c(C)c2)n2nc(SCc3nc4ccccc4[nH]3)nc2n1 | 470
Cc1cc(Nc2ccc(F)cc2)n2nc(SCCc3ccccc3)nc2n1 | 1550
Cc1cc(Nc2ccc(N3CCN(C)CC3)cc2)n2nc(SCc3nc4ccccc4[nH]3)nc2n1 | 1590
CCCSc1nc2nc(C)cc(Nc3ccc(F)cc3)n2n1 | 3540
Cc1cc(Nc2cccc(F)c2)n2nc(SCc3nc4ccccc4[nH]3)nc2n1 | 520
Cc1cc(Nc2ccccc2F)n2nc(SCc3nc4ccccc4[nH]3)nc2n1 | 220
Cc1cc(Nc2ccc(F)cc2)n2nc(SCC(=O)c3ccccc3)nc2n1 | 1260
Cc1cc(Nc2ccc(F)cc2)n2nc(SCc3c(Cl)cccc3Cl)nc2n1 | 1930
CC(=O)c1ccc(Nc2cc(C)nc3nc(SCc4nc5ccccc5[nH]4)nn23)cc1 | 760
Cc1cc(Nc2ccc(F)cc2)n2nc(SCc3ccc(Cl)cc3)nc2n1 | 1890
O=c1cc(-c2ccccc2)[nH]c2nc(SCc3nc4ccccc4[nH]3)nn12 | 660
Cc1cc(Nc2ccc(F)cc2)n2nc(SCc3cccc([N+](=O)[O-])c3)nc2n1 | 1990
Cc1cc(Nc2ccc(F)cc2)n2nc(SCCCc3ccccc3)nc2n1 | 4220
Cc1cc(Nc2ccc(Br)cc2)n2nc(SCc3nc4ccccc4[nH]3)nc2n1 | 450

Assay: Inhibition of ABCB1 (unknown origin) expressed in HEK293 cells assessed as increase in reversal of resistance to paclitaxel-induced cytotoxicity by measuring paclitaxel IC50 at 20 uM pre-incubated for 4 hrs followed by paclitaxel addition and measured after 72 hrs by MTT assay (Rvb = 91.40 +/- 23.32 nM)

SMILES | IC50 [nM]
Cc1cc(Nc2ccc(F)cc2)n2nc(SCc3nc4ccccc4[nH]3)nc2n1 | 5

Assay: Inhibition of ABCB1 (unknown origin) expressed in HEK293 cells assessed as increase in reversal of resistance to paclitaxel-induced cytotoxicity by measuring paclitaxel IC50 at 10 uM pre-incubated for 4 hrs followed by paclitaxel addition and measured after 72 hrs by MTT assay (Rvb = 91.40 +/- 23.32 nM)

SMILES | IC50 [nM]
Cc1cc(Nc2ccc(F)cc2)n2nc(SCc3nc4ccccc4[nH]3)nc2n1 | 10

Assay: Inhibition of ABCB1 in multidrug-resistant human KB-C2 cells assessed as increase in reversal of resistance to paclitaxel-induced cytotoxicity by measuring paclitaxel IC50 at 20 uM pre-incubated for 4 hrs followed by paclitaxel addition and measured after 72 hrs by MTT assay (Rvb = 1886.37 +/- 243.05 nM)

SMILES | IC50 [nM]
Cc1cc(Nc2ccc(F)cc2)n2nc(SCc3nc4ccccc4[nH]3)nc2n1 | 4.8

Assay: Inhibition of ABCB1 in multidrug-resistant human KB-C2 cells assessed as increase in reversal of resistance to paclitaxel-induced cytotoxicity by measuring paclitaxel IC50 at 10 uM pre-incubated for 4 hrs followed by paclitaxel addition and measured after 72 hrs by MTT assay (Rvb = 1886.37 +/- 243.05 nM)

SMILES | IC50 [nM]
Cc1cc(Nc2ccc(F)cc2)n2nc(SCc3nc4ccccc4[nH]3)nc2n1 | 22

Assay: Inhibition of ABCB1 in multidrug-resistant human SW620/Ad300 cells assessed as increase in reversal of resistance to paclitaxel-induced cytotoxicity by measuring paclitaxel IC50 at 20 uM pre-incubated for 4 hrs followed by paclitaxel addition and measured after 72 hrs by MTT assay (Rvb = 4233.18 +/- 499.10 nM)

SMILES | IC50 [nM]
Cc1cc(Nc2ccc(F)cc2)n2nc(SCc3nc4ccccc4[nH]3)nc2n1 | 22

Assay: Inhibition of ABCB1 in multidrug-resistant human SW620/Ad300 cells assessed as increase in reversal of resistance to paclitaxel-induced cytotoxicity by measuring paclitaxel IC50 at 10 uM pre-incubated for 4 hrs followed by paclitaxel addition and measured after 72 hrs by MTT assay (Rvb = 4233.18 +/- 499.10 nM)

SMILES | IC50 [nM]
Cc1cc(Nc2ccc(F)cc2)n2nc(SCc3nc4ccccc4[nH]3)nc2n1 | 73.6
